For series [1], the system named is PANK2−/− IMR32 cells. As to the kind of experiment: Coenzyme A assay in PANK2 silenced cells (LC-MS quantification of free CoA). In kind it is cell-based, human. To be noted: Homo sapiens, IMR-32; compound concentration 50 uM; fold increase in CoA levels relative to controls; treated twice, 24 h + 24 h.
The nature of series [2]: Stability in human plasma. In kind it is in vitro ADME. The conditions noted are these: 37° C., up to 60 min. On the procedure: The stability of selected compounds in human plasma was evaluated according to the following protocol. Compounds and positive control samples were dissolved in 100% DMSO at 3 mM. To investigate the stability of the test compounds in plasma, samples were made by diluting test compounds into plasma from the stock solutions to obtain a test compound concentration of 3 μM (0.1% DMSO). Before addition of a test compound, 990 μl of plasma were preincubated at 37° C. for 5 min in eppendorf. After addition of a test compound, 70 μl for each time point were transferred to a 96-deepwell plate, previously warmed at 37° C. in a DUBNOFF water bath. Each compound was tested at five time points, in duplicate (10, 20, 30, 40 and 60 min). At each time point, an aliquot of 50 μl was taken and transferred to a new 96-deepwell plate, and the reaction was stopped with 200 μl of 100% acetonitrile containing 0.1% formic acid and the appropriate internal standard. Then samples were centrifuged at 1100×g for 30 min at +4° C. and supernatants were transferred to a new 96-deepwell plate. Samples were evaporated under N2 and reconstituted in H2O/ACN 0.1% formic Acid (98:2). Analysis was performed without a calibration curve (Acquity UPLC-Waters; SciexAPI4000). Time 0 was obtained by adding acetonitrile before addition of the test compound.
(§1) Stability was determined based on analysis of disappearance of the compounds as a function of incubation time. Quantification of test compounds was measured as a peak area relative to an internal standard. The elimination constant k and half-life (t1/2) were determined as described above in Example 7.

Series [3] is described as follows: Stability of compounds in human hepatocytes. In kind it is in vitro ADME. The conditions noted are these: cryopreserved human hepatocytes in suspension, 37° C., 0-240 min. The protocol: (§2) Stability in hepatocytes for select compounds disclosed in the application was evaluated in two species (mouse and human) according to the following procedure. Compounds and positive control samples were dissolved in 100% DMSO at 5 mM. Cryopreserved hepatocytes were thawed and resuspended in Hepatocyte Basal Medium (HBM-Lonza CC-3199) supplemented with CC-4182 (complete hepatocyte culture medium). Test compounds were diluted into cell suspension (1 million cells/ml) from the stock solutions to have a test compound concentration of 5 μM (0.1% DMSO). Incubation was performed in 24-well plates, at 37° C. in a DUBNOFF water bath, under low shaking. Each compound was tested at 6 time points, in duplicates (0, 15, 30, 60, 120, and 240 min). At each time point, an aliquot of 120 μl was taken and transferred to a 96-well deep plate. The reaction was stopped with the addition of one volume of 100% acetonitrile plus 0.1% formic acid and the appropriate internal standard. Samples then were centrifuged at 1100×g for 30 min at +4° C. and supernatants were transferred to a new 96-deepwell plate. Samples were evaporated under N2 and reconstituted in H2O/ACN 0.1% formic Acid (98:2). Analysis was performed without a calibration curve (Acquity UPLC-Waters; Sciex API4000). Time 0 was obtained adding acetonitrile before addition of the test compound. Stability was determined based on analysis of disappearance of the compounds as a function of incubation time. Quantification of test compounds was measured as a peak area relative to an internal standard. The elimination constant, k, is calculated by plotting mean disappearance values on a semi-logarithmic scale and fitting with a best fit linear regression. The half-life (t1/2) expressed in hours was derived using Equation 1:
(§3) t1/2=ln 2/(−k). Equation 1: […]

The nature of series [4]: Stability of compounds in mouse hepatocytes. In kind it is in vitro ADME. The conditions noted are these: cryopreserved mouse hepatocytes in suspension, 37° C., 0-240 min. The protocol: as §2, §3
Series [5] is described as follows: Stability in human whole blood. In kind it is in vitro ADME. To be noted: 37° C., up to 60 min. On the procedure: The stability of selected compounds in human whole blood was evaluated according to the following protocol. Compounds and positive control samples were dissolved in 100% DMSO at 3 mM (stock solution). To investigate the stability of the test compounds in whole blood, a 200 μM working solution (WS) in water has been prepared by adding 66.66 μl of each 3 mM stock solution to 933.34 μl of water (6.66% DMSO content). After pre-incubation of the whole blood at 37° C. for 5 min in an eppendorf, 10.5 μl of each working solution were spiked into 689.5 μl of heated blood. The obtained 3 μM solution in blood (0.1% DMSO content) was quickly stirred and 100 μl for each time point were transferred to an eppendorf. Each compound was tested in duplicate at five time points (10, 20, 30, 40 and 60 min). At each time point, the reaction was stopped by quenching the spiked blood (100 μl) with 400 μl of 100% acetonitrile containing 0.1% formic acid. Then samples were centrifuged at 15600 rpm for 15 min at +4° C. and 200 μl of supernatant were transferred to a 96-deepwell plate. Samples were evaporated under N2 and reconstituted in H2O/ACN 0.1% formic Acid (98/2 v/v) containing the appropriate internal standard. Analysis was performed without a calibration curve by using an Acquity-UPLC (Waters) coupled to a triple quadrupole mass spectrometer (SciexAPI4000). Time point 0 was obtained by adding 3 μL of each 200 μM working solution to 997 μL of the supernatant obtaining after centrifugation (15600 rpm for 15 min at +4° C.) of the blank matrix quenched with acetonitrile containing 0.1% formic acid.
as §1

Where [6] appears, read: Diastereoisomer A (upfield shift in 31P NMR), read-out: t1/2 (h) Human Plasma Diastereoisomer A (converted).
[7] abbreviates: Diastereoisomer A (upfield shift in 31P NMR), read-out: t1/2 (h) Human Hepatocytes Diastereoisomer A (converted).
Setting [8] is: Diastereoisomer A (upfield shift in 31P NMR), read-out: t1/2 (h) Mouse Hepatocytes Diastereoisomer A (converted).

SMILES strings stand for the structures.

For orientation: fold induction means the signal under treatment as a multiple of the control signal. In the case of `CC(=O)SCCNC(=O)CCNC(=O)[C@@H]1OP(=O)(N[C@@H](C)C(=O)OCCc2ccccc2)OCC1(C)C` (stereo partly drawn) [R1001, phenethyl ((4R)-4-((3-((2-(acetylthio)ethyl)amino)-3-oxopropyl)carbamoyl)-5,5-dimethyl-2-oxido-1,3,2-dioxaphosphinan-2-yl)-L-alaninate], in series [1], the fold induction at 50 µM turned out to be 3.5. Moreover, the half-life at 3 μM in series [2] (setting [6]) is above 1 h; in series [2] (Diastereoisomer B, read-out: t1/2 (h) Human Plasma Diastereoisomer B (converted)), 0.36 h.

Turning to `CC(=O)SCCNC(=O)CCNC(=O)[C@@H]1O[P@@](=O)(OCOC(=O)C(C)(C)C)OCC1(C)C` [R1002, (((2S,4R)-4-((3-((2-(acetylthio)ethyl)amino)-3-oxopropyl)carbamoyl)-5,5-dimethyl-2-oxido-1,3,2-dioxaphosphinan-2-yl)oxy)methyl pivalate], the half-life at 3 μM in series [2] (setting [6]) was 0.72 h. Also, the half-life at 5 μM in series [3] (setting [7]) and in series [4] (setting [8]) was below 0.25 h in each case.

With `CC(=O)SCCNC(=O)CCNC(=O)[C@@H]1OP(=O)(OCOC(=O)NCCOC(=O)C(C)(C)C)OCC1(C)C` (stereo partly drawn) [R1008, 2-((((((4R)-4-((3-((2-(acetylthio)ethyl)amino)-3-oxopropyl)carbamoyl)-5,5-dimethyl-2-oxido-1,3,2-dioxaphosphinan-2-yl)oxy)methoxy)carbonyl)amino)ethyl pivalate], the fold induction at 50 µM in series [1] was found to be 41.2. In addition, the half-life at 3 μM was 0.5 h in series [5] (Diastereoisomer A (upfield shift in 31P NMR), read-out: t1/2 (h) Human Whole Blood Diastereoisomer A (converted)) and 0.23 h in series [5] (Diastereoisomer B, read-out: t1/2 (h) Human Whole Blood Diastereoisomer B (converted)). The half-life at 5 μM in series [3] (setting [7]) is 0.29 h; in series [3] (Diastereoisomer B, read-out: t1/2 (h) Human Hepatocytes Diastereoisomer B (converted)), below 0.25 h; in series [4] (setting [8]), below 0.25 h; in series [4] (Diastereoisomer B, read-out: t1/2 (h) Mouse Hepatocytes Diastereoisomer B) it was below 0.25 h.

The record behind these values is patent publication US20190337971A1, “PANTETHEINE DERIVATIVES FOR THE TREATMENT OF NEUROLOGIC DISORDERS” (Retrophin, Inc., priority 2016, published 2019).
